{"source": "patent US10004730B2", "about": "“Small molecules targeting androgen receptor nuclear localization and/or level in prostate cancer” (University of Pittsburgh-Of the Commonwealth System of …, priority 2011, dated 2018)", "key": {"[1]": {"target": "T1, GFP-AR (Homo sapiens, UniProt P10275)", "T1 construct": "expressed in transfected cells; also PC3 and LNCaP (transient)", "T1 sequence (P10275 1-920)": "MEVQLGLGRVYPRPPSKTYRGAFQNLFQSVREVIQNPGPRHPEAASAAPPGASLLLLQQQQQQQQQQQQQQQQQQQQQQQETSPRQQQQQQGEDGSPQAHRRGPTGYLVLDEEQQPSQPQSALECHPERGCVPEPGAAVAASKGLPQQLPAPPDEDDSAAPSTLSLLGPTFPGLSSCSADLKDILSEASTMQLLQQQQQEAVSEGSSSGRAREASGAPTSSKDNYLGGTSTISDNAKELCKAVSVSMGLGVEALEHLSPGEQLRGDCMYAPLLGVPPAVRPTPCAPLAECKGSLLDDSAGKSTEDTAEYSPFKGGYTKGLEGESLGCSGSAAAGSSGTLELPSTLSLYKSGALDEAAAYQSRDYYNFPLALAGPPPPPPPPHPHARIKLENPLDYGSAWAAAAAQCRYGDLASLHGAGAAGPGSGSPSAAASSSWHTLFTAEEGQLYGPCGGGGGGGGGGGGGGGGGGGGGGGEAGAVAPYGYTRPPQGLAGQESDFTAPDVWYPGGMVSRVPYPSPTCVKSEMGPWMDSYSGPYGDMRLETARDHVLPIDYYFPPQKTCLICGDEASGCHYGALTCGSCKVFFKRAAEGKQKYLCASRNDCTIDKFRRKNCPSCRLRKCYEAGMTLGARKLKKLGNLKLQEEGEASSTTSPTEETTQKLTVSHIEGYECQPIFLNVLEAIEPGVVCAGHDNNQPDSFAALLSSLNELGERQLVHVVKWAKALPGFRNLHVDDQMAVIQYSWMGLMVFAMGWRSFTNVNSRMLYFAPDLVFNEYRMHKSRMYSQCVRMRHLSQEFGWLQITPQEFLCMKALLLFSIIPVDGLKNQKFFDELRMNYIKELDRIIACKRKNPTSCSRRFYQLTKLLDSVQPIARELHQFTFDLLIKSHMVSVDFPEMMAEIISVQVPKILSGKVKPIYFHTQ", "experiment": "Localization of transiently transfected GFP-AR by fluorescence microscopy", "type": "cell-based", "conditions": "for GFP-AR localization: 1 nM", "experimental": "FIGS. 2A and 2B. Localization of GFP-AR in AR-negative PC3, androgen-sensitive LNCaP, and CRPC C4-2 cells. […] PC3, LNCaP, and C4-2 cells were transfected with GFP-AR and localization was assessed in ligand-free conditions or in the presence of mibolerone by fluorescence microscopy within 24 hours of transfection. The results in FIG. 2B are from five transfections for each cell line in the absence of androgen. At least 50 cells were counted after each transfection. Error bars represent ±SEM.\n(§1) FIGS. 3A and 3B. […] FIG. 3A. […] Localization was assessed by fluorescence microscopy 4 hours after treatment. FIG. 3B.\nFIGS. 6A, 6B, 6C and 6D. FIG. 6A. […] FIG. 6B. […] C4-2 cells were transfected with GFP-AR and subcellular localization of GFP-AR was determined after overnight treatment using fluorescent microscopy. FIG. 6C. Quantitative analysis of results in FIG. 6B. […] FIG. 6D. […] Endogenous AR was detected by immunofluorescent staining using AR antibody N-20 (Santa Cruz Biotechnology). Nuclei were stained with Hoechst.\nA prerequisite for AR transcriptional activity is its nuclear localization. To determine whether the subcellular localization of AR was altered during the progression to castration-resistance, AR-negative PC3 prostate cancer cells, androgen-sensitive LNCaP cells and castration-resistant C4-2 cells were transfected with AR tagged to green fluorescent protein (GFP) and localization was assessed by fluorescence microscopy in hormone-free conditions.\nHsp90 plays an important role in ligand-induced AR nuclear translocation. […] To determine if the effect of hsp90 inhibition on endogenous AR in C4-2 cells was similar to its effect on transfected GFP-AR, immunofluorescence experiments were performed."}, "[2]": {"target": "T2, endogenous AR (Homo sapiens, UniProt P10275, T878A)", "T2 construct": "endogenous in cells; host or cells: C4-2", "T2 sequence (P10275 whole entry T878A)": "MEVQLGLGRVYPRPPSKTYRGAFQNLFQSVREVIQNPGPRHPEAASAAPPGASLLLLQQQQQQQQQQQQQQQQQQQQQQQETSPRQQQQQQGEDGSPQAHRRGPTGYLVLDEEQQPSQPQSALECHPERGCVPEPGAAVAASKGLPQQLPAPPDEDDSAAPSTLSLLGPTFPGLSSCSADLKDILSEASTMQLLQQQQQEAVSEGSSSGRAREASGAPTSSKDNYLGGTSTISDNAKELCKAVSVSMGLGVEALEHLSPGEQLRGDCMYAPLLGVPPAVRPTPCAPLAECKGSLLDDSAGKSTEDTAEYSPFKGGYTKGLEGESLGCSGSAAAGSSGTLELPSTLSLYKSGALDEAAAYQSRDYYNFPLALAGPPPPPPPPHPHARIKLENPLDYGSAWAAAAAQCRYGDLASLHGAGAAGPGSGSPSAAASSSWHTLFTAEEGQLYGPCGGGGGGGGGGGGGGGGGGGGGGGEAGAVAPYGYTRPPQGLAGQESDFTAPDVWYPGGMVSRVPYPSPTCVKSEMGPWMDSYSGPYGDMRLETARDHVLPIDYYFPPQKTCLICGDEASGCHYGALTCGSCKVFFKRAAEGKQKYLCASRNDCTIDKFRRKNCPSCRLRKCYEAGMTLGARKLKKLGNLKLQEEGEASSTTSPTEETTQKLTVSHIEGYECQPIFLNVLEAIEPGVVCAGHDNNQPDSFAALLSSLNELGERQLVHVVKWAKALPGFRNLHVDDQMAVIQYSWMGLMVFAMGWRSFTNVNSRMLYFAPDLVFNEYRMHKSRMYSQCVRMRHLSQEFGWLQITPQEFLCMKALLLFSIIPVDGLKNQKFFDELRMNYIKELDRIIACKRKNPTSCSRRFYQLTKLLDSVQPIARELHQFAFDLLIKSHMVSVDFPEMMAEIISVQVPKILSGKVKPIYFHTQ", "experiment": "Endogenous AR nuclear localization in C4-2 cells by immunofluorescence", "type": "cell-based", "conditions": "AR antibody N-20", "experimental": "as §1\n(§2) FIGS. 6A, 6B, 6C and 6D. FIG. 6A. Structures of compounds SID 14730725 (3-(4-Ethoxy-phenyl)-6,7-dihydro-5H-pyrrolo[1,2-a]imidazole), SID 14742211 (3-(4-Chloro-phenyl)-6,7-dihydro-5H-pyrrolo[1,2-a]imidazole) and SID 3712502 (2-[(3,5-dimethyl-1,2-oxazol-4-yl)methylsulfanyl]-1-[4-(2,3-dimethylphenyl)piperazin-1-yl]ethanone). FIG. 6B. Effect of SID 14730725 and SID 3712502 at indicated concentrations (uM) on nuclear localization of AR in castration-resistant C4-2 prostate cancer cells cultured in complete RPMI media with 10% FBS. C4-2 cells were transfected with GFP-AR and subcellular localization of GFP-AR was determined after overnight treatment using fluorescent microscopy. FIG. 6C. Quantitative analysis of results in FIG. 6B. The percent of transfected cells displaying predominant nuclear localization of GFP-AR at in the presence of various concentrations of SID 14730725 and SID 3712502 were determined. FIG. 6D. SID 14730725 inhibited endogenous AR nuclear localization in C4-2 cells. Endogenous AR was detected by immunofluorescent staining using AR antibody N-20 (Santa Cruz Biotechnology). Nuclei were stained with Hoechst.\n(§3) Hsp90 plays an important role in ligand-induced AR nuclear translocation. […]"}, "[3]": {"target": "T3, GFP-ER (Homo sapiens, UniProt P03372)", "T3 construct": "expressed in transfected cells; host or cells: C4-2", "T3 sequence (P03372 whole entry)": "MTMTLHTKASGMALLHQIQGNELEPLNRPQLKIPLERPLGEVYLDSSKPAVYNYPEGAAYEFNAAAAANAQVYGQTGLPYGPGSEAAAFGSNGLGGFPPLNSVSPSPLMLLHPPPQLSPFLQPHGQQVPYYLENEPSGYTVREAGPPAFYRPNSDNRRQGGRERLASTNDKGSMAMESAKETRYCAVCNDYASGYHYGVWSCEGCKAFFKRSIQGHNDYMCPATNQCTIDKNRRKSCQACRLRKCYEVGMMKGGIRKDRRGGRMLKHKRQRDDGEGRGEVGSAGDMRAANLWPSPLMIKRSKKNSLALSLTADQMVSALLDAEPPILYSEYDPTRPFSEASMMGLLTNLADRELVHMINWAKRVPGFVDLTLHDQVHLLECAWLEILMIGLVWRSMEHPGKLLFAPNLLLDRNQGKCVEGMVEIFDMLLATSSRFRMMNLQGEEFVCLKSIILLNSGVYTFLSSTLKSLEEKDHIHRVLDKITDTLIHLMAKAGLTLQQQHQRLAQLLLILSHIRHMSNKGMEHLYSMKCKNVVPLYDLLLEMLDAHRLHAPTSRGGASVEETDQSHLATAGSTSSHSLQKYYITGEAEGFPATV", "experiment": "GFP-ER nuclear localization in transfected C4-2 cells", "type": "cell-based", "conditions": "24 hours", "experimental": "(§4) FIG. 7. The effect of SID 14730725 and SID 3712502 on nuclear localization of GFP-ER (Top panel) and GFP-GR (Bottom panel) in C4-2 cells. C4-2 cells were transfected with GFP-ER or GFP-GR overnight. The following day the cells were treated with different concentrations (uM) of the small molecules. The cells transfected with GFP-GR were co-treated with 0.5 μM Dexamethasone. Cells were imaged 24 hours after the treatment with the small molecules."}, "[4]": {"target": "T4, GFP-GR (Homo sapiens, UniProt P04150)", "T4 construct": "expressed in transfected cells; host or cells: C4-2", "T4 sequence (P04150 whole entry)": "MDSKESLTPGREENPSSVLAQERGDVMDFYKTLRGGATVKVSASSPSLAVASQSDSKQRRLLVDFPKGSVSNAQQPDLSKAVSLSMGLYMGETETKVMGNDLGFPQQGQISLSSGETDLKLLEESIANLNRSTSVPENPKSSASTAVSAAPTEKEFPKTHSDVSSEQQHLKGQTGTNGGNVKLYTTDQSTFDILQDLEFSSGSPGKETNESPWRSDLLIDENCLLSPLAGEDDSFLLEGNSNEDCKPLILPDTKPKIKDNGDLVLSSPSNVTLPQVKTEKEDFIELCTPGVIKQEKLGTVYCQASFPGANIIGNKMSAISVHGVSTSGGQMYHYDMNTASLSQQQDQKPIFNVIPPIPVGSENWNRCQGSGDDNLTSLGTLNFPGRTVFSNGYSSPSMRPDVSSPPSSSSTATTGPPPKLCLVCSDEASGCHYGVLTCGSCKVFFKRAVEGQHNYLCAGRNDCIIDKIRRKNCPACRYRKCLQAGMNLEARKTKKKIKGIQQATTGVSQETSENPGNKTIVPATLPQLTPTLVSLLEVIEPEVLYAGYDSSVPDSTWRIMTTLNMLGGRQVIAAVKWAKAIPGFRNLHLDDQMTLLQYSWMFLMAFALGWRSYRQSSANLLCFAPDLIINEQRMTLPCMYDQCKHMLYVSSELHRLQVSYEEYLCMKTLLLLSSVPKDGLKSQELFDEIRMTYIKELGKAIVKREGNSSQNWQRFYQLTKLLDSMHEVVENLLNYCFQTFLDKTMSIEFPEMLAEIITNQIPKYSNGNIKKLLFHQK", "experiment": "GFP-GR nuclear localization in transfected C4-2 cells", "type": "cell-based", "conditions": "co-treated with 0.5 μM Dexamethasone, 24 hours", "experimental": "as §4"}, "[5]": {"tested_on": "PC3 cells", "experiment": "Cell survival, crystal violet staining, PC3", "type": "cell-based", "conditions": "48 hrs", "experimental": "(§5) FIGS. 8A and 8B. Effect of SID 14730725 and SID 3712502 on survival of PC3 (FIG. 8A) and C4-2 cells (FIG. 8B). PC3 or C4-2 cells were plated in 12-well plates at 2,500 cell per well in RPMI 1640 complete medium. After 24 hrs, the cells were treated with SID 14730725 or SID 3712502 at the indicated concentrations for 48 hrs. The wells were washed with PBS thrice and fixed in 0.5% crystal Violet in methanol. C=control; treated with vehicle DMSO."}, "[6]": {"tested_on": "C4-2 cells", "experiment": "Cell survival, crystal violet staining, C4-2", "type": "cell-based", "conditions": "48 hrs", "experimental": "as §5"}, "[7]": {"tested_on": "castration resistant C4-2 xenograft tumors", "experiment": "C4-2 xenograft tumors in castrated SCID mice", "type": "in vivo", "experimental": "FIGS. 9A and 9B. FIG. 9A. SID 14730725 inhibits the growth of castration resistant C4-2 xenograft tumors. C4-2 tumors were established by sc injection of 1×10^6 cells resuspended in 0.25 ml RPMI complete media mixed with 0.25 ml of Matrigel into young adult male SCID mice. SCID mice were castrated and randomized when C4-2 tumor volume reach ˜200 ul. Mice received s.c. delivery of SID 14730725 (50 mg/Kg body weight) or vehicle control (corn oil) every other day for 2 weeks, beginning 4 days after castration. Each group consisted of 7 mice. Tumor volumes were measured using micro-calipers and calculated using the formula (length×width^2)/2. FIG. 9B. Body weight of animals was measured every other day. Bars represent the mean±SEM; **p<0.01; Red lines represent data from the animals treated with SID 14730725."}, "[8]": {"tested_on": "endogenous AR", "experiment": "Endogenous AR nuclear localization in C4-2 cells by immunofluorescence", "type": "cell-based", "conditions": "300 nM, hormone-free", "experimental": "as §1, §2, §3"}, "[9]": {"target": "T1, GFP-AR", "experiment": "GFP-AR localization in stably transfected C4-2-GFP-AR sublines / high throughput screen assay", "type": "cell-based", "conditions": "5 uM, 24 hours; C4-2 stably transfected with GFP-AR; charcoal-stripped FBS medium", "quoted_text": "The images were acquired 24 hours after the treatment of docetaxel at 5 uM or vehicle DMSO. C4-2 cells stably transfected with GFP-AR were changed to phenol red-free RPMI with 10% charcoal-stripped FBS medium before the addition of docetaxel. Nuclei of the cells were stained with Hoechst dye. Images were acquired by fluorescent microscopy.\nLocalization of GFP-AR signal was assessed by fluorescence microscopy overnight after treatment.\nThe C4-2-GFP-AR subclone was cultured in 384-well plates in complete RPMI media. We used regular complete media in high throughput assay because it contains castration levels of androgens. […] Images of GFP signals and Hoechst signals were acquired into separate channels on a Cellomics ArrayScan® V^TI system. Both nuclear and cytoplasmic GFP signals were quantified with the ArrayScan V^TI, which uses an image-based auto-focus system, and has the capability of imaging up to six excitation and emission channels. […] The Cellomics compartmental analysis algorithm was used to quantify the relative distribution of the GFP-AR between nuclear and cytoplasmic cellular compartments. […] The mask was eroded to reduce cytoplasmic contamination within the nuclear area, and the reduced mask was used to quantify the amount of target channel GFP fluorescence within the nucleus. […]"}, "[10]": {"target": "AR (Homo sapiens, UniProt P10275)", "conditions": "reported in earlier studies; cited from earlier work"}}, "data": [{"smiles": "CCOc1ccc(-c2cnc3n2CCC3)cc1", "note": "[SID 14730725, 3-(4-Ethoxy-phenyl)-6,7-dihydro-5H-pyrrolo[1,2-a]imidazole]", "values": [{"measurement": "blocking AR nuclear localization, dependence on androgen level", "setting": "[1]; absence or very low levels of androgens", "result": "more effective in blocking AR nuclear localization in the absence or in the presence of very low levels of androgens"}, {"measurement": "GFP-AR nuclear localization", "setting": "[1]; transfected C4-2 cells, complete RPMI with 10% FBS, overnight treatment", "result": "effectively inhibited"}, {"measurement": "endogenous AR nuclear localization", "setting": "[2]", "result": "inhibited"}, {"measurement": "localization of GFP-ER", "setting": "[3]", "result": "no effect"}, {"measurement": "localization of GFP-GR", "setting": "[4]", "result": "no effect"}, {"measurement": "cytotoxicity", "setting": "[5]", "result": "little or no cytotoxicity"}, {"measurement": "cytotoxicity", "setting": "[6]", "result": "little or no cytotoxicity"}, {"measurement": "body weight of injected mice", "setting": "[7]; 50 mg/Kg s.c. every other day", "result": "did not affect the body weight"}, {"measurement": "growth of C4-2 xenograft tumor", "setting": "[7]; 50 mg/Kg s.c. every other day for 2 weeks, castrated SCID mice", "result": "able to inhibit the growth of a C4-2 xenograft tumor with statistical significance"}]}, {"smiles": "C[C@@H]1C[C@H]2O[C@@H]2/C=C\\C=C\\C(=O)Cc2c(Cl)c(O)cc(O)c2C(=O)O1", "note": "[radicicol]", "values": [{"measurement": "nuclear localization of GFP-AR", "setting": "[1]; C4-2 cells, data not shown", "result": "prevented"}]}, {"smiles": "C=CCNC1=C2C[C@@H](C)C[C@H](OC)[C@H](O)[C@@H](C)/C=C(\\C)[C@H](OC(N)=O)[C@@H](OC)/C=C\\C=C(/C)C(=O)NC(=CC1=O)C2=O", "note": "[17-AAG, reference compound]", "values": [{"measurement": "endogenous AR nuclear expression", "setting": "[8]", "result": "a decrease in nuclear AR expression was observed"}]}, {"smiles": "CC(=O)O[C@@]12CO[C@@H]1C[C@H](O)[C@@]1(C)C(=O)[C@H](O)C3=C(C)[C@@H](OC(=O)[C@H](O)[C@@H](NC(=O)OC(C)(C)C)c4ccccc4)C[C@@](O)([C@@H](OC(=O)c4ccccc4)[C@H]21)C3(C)C", "note": "[docetaxel]", "values": [{"measurement": "AR nuclear localization in castration-resistant C4-2 cells", "setting": "[9]", "result": "no significant effect"}, {"measurement": "AR nuclear translocation", "setting": "[10]", "result": "can inhibit androgen-dependent AR nuclear translocation"}]}, {"smiles": "C[C@@H]1CC2=CC(=O)CC[C@@H]2[C@H]2CC[C@@]3(C)[C@@H](CC[C@]3(C)O)[C@@H]21", "note": "[mibolerone]", "values": [{"measurement": "GFP-AR localization", "setting": "[1]; C4-2 cells", "result": "induced complete nuclear localization"}, {"measurement": "GFP-AR localization", "setting": "[1]; LNCaP cells", "result": "induced complete nuclear localization"}, {"measurement": "GFP-AR localization", "setting": "[1]; PC3 cells", "result": "induced complete nuclear localization"}]}]}
